Experimental data reported in US6790833B2, “Antifungal and antibacterial agents” (priority 2001, dated 2004).
“Also recorded” adds a separate entry of the source.

How the values were obtained:
fungi or bacteria = test: Antifungal and antibacterial activity assays, overall statements; assay type: cell-based
Method: (§1) Two fold serial dilutions of each peptide (ranging from 100 μM down to 1.5625 μM) in 20 μl of 10 mM Na phosphate buffer, pH 7.4, were incubated with an equal volume of bacterial or fungal strain (10^5 cells/ml) for 1.5 hours at 30° C. for S. cerevisiae and 37° C. for the rest of strains tested. At the end of incubation, the samples were diluted 20 fold and aliquots (˜120 cells) of each sample were plated on appropriate plates depending on the strain tested, as indicated above. Plates were incubated for 1 to 7 days aerobically or anaerobically, depending on the strain tested. Colonies were then counted, and the loss of cell viability was plotted as a function of protein concentration. Fungicidal activities against C. albicans and C. neoformans were also tested at 4° C.
(§2) A time course study of peptide-induced killing was statistically analyzed by student t-test.

C. neoformans [1] = test: Antifungal (cidal) activity assay, loss of cell viability; assay type: cell-based, Cryptococcus neoformans; details: for ED50 (95% confidence limit) C. neoformans: Example 2, 1.5 hours, 37°, 10 mM Na phosphate buffer pH 7.4; for Loss of Cell viability (%): 6.25 μM
Excerpt: (§3) Azole-sensitive (# 2-76) and azole-resistant (# 12-99) clinical isolates of C. albicans were a gift from Dr. Theodore C. White (University of Washington and Seattle Biomedical Research Institute, Seattle, Wash.). An azole-sensitive Candida glabrata (C. glabrata) was purchased from ATCC (ATCC 90030) and its azole-resistant counterpart, clinical isolate 65C, was obtained from Dr. John E. Bennett (National Institute of Allergy and Infectious Diseases, Bethesda, Md.). A clinical isolate of Candida krusei (C. krusei) was obtained from the Erie County Medical Center, Buffalo, N.Y. Amphotericin B-sensitive (CN2) and -resistant (CN2843) C. neoformans strains were obtained from AIDS patients with cryptococcal meningitis and were generously provided by Dr. John H. Rex (University of Texas Medical School, Houston, Tex.). Additionally, Saccharomyces cerevisiae (S. serevisiae) strain S288C was provided by Dr. D. Kosman, Department of Biochemistry, University at Buffalo, the State University of New York. All fungi were streaked and grown on SAB plates at 37° C., except S. cerevisiae, which was grown at 30° C. until large colonies were formed. One colony was then picked and resuspended in Na phosphate buffer (pH 7.4) and the concentration was adjusted to 1×10^5 cell/ml for the antifungal assay described below.
as §1
(§4) To test the effect of inhibitors of oxidative phosphorylation in the mitochondrial system on peptide-induced killing, C. albicans and C. neoformans (CN2) were preincubated with either 20 mM sodium azide or 300 μM CCCP for 2 hours at 37° C. The cidal assays were then carried out as described above. In separate control experiments, both inhibitors were evaluated for their toxicity toward C. albicans and C. neoformans (CN2) in the absence of peptides. At these concentrations, neither compound had any cidal effect. In addition, the fungicidal activities of MUC7 20-mer and Hsn-5 (25 μM) in 10 mM Na phosphate buffer (pH 7.4) in the presence of varying concentrations (1-50 mM) of Ca^++ (as CaCl2) or Mg^++ (as MgCl2) were examined.
as §2
(§5) Two fold serial dilutions of each peptide (ranging from 50 or 25 μM down to 1.5625 μM) in 20 μl of 10 mM Na phosphate buffer, pH 7.4, were incubated with an equal volume of fungal strain (10^5 cells/ml, also in Na phosphate buffer) for 1.5 hours at 37°. At the end of incubation, the samples were diluted 20 fold with the same buffer and aliquots (˜150 cells) of each sample were plated on SAB plates. Plates were incubated for 1 to 2 days for C. albicans and C. neoformans, respectively. Colonies were then counted, and the loss of cell viability was plotted as a function of protein concentration. The statistical analysis was as described in Example 1.

C. albicans [2] = test: as above; assay type: cell-based, Candida albicans; details: for ED50 (95% confidence limit) C. albicans: Example 2, 1.5 hours, 37°, 10 mM Na phosphate buffer pH 7.4; for Loss of Cell viability (%): 6.25 μM
Excerpt: as §3, §1, §4, §2, §5

C. neoformans [3] = test: Fluorescence light and confocal microscopy, internalization of FITC-labeled peptide; assay type: cell-based, Cryptococcus neoformans; details: 50 μM, 45-90 minutes, 37° C.
Method: (§6) The internalization of MUC7 20-mer into fungi was visualized in C. albicans and C. neoformans. Untreated cells (10^7) or cells preincubated with 20 mM sodium azide, 300 μM CCCP, 50 mM Ca^++ or 50 mM Mg^++ were then treated with 50 μM FITC-MUC7 20-mer for 45-90 minutes in 100 μl of Na phosphate buffer (10 mM, pH 7.4) at 37° C. Untreated cells were also incubated with 50 μM FITC-MUC7 20-mer at 4° C. The cells were then extensively washed with phosphate buffer, concentrated and resuspended in the same buffer. The cell suspension was then quickly mounted on slides with sealed cover-slips. Fluorescence light micrographs were made on a Nikon Optiphot microscope, with a fluorescent light source.
(§7) The intracellular localization of FITC-MUC7-20mer was investigated in a double-labeling experiment using MitoTracker Red mitochondrial probe. C. albicans and C. neoformans were incubated with 500 nM MitoTracker Red in 10 mM Na phosphate buffer, pH 7.4 for 15 minutes at room temperature, washed three times with the same buffer, and subsequently incubated with 50 μM FITC-MUC7 20-mer. After 20 min. incubation at 37° C., the suspension was washed with phosphate buffer extensively. The cell suspension was then quickly mounted on slides with sealed cover-slips. Confocal fluorescence microscopy was performed with a BioRad MRC-1024 confocal microscope system with Krypton-argon laser which outputs 488, 568 and 647 nm excitation line and Nikon upright epifluorescence microscope (Zeiss 60× oil immersion planApp objective with 1.4 numerical aperture).
(§8) The internalization of MUC7 20-mer and 12-mer-3 into fungi was visualized using FITC labeled peptides. Cells (10^7) were treated with 50 μM FITC-MUC7 20-mer or 12-mer-3 for 45-90 mins in 100 μl of Na phosphate buffer (10 mM, pH 7.4) at 37° C. The cells were then processed and visualized as described in Example 1.

C. albicans [4] = test: as above; assay type: cell-based, Candida albicans; details: 50 μM, 45-90 minutes, 37° C.
Method: as §6, §7, §8

A. actinomycetemcomitans = test: Antibacterial (cidal) activity assay, loss of cell viability; assay type: cell-based, Actinobacillus actinomycetemcomitans
Method: (§9) The following bacterial strains were tested: Streptococcus mutans (S. mutans) GS-5, Streptococcus gordonii (S. gordonii) Challis, Escherichia coli (E. coli) HB101, Pseudomonas aeruginosa (P. aeruginosa) ATCC 17648, Actinobacillus actinomycetemcomitans (A. actinomycetemcomitans) NCTC9710, Porphyromonas gingivalis (P. gingivalis) 381 and W50. S. mutans, S. gordonii, A. actinomycetemcomitans and P. aeruginosa were grown anaerobically by candle jar extinction at 37° C. on TSB plates. P. gingivalis was grown in anaerobic chamber at 37° C. on sheep blood agar plates. E. coli was grown aerobically at 37° C. on LB agar plates.
as §1, with “Plates were incubated for 1 to 7 days aerobically or anaerobically, depending on the strain tested.” left out, “Fungicidal activities against C. albicans and C. neoformans were also tested at 4° C.” left out
as §2

S. mutans = test: as above; assay type: cell-based; details: Streptococcus mutans, read-out: ED50 (95% confident limit)
Method: as §9
as §1, with “Plates were incubated for 1 to 7 days aerobically or anaerobically, depending on the strain tested.” left out, “Fungicidal activities against C. albicans and C. neoformans were also tested at 4° C.” left out
as §2

## 12-mer (amino acids 40-51 of MUC7D1), SEQ ID NO.6: RKSYKCLHKRCR (OTHER INFORMATION: 12-mer; Amino acids 40-51 of the MUC7D1 peptide.) [Peptide 12-mer]
Fungi or bacteria
  cidal activity against fungi or bacteria: active against a variety of fungi and bacteria

## 12-mer with arginine and lysine at position 40 and 41 replaced by alanine, SEQ ID NO.11: AASYKCLHKRCR (OTHER INFORMATION: 12-mer-2 variant of the 12-mer) [Peptide 12-mer-2]
C. neoformans [1]
  ED50 (95% confidence limit) C. neoformans: comparable to that of unaltered 12-mer

## 12-mer with both cysteines replaced by alanine, SEQ ID NO.13: RKSYKALHKRAR (OTHER INFORMATION: 12-mer-4 variant of the 12-mer) [Peptide 12-mer-4]
C. albicans [2]
  ED50 (95% confidence limit) C. albicans: did not alter 12-mer antifungal activity
C. neoformans [1]
  ED50 (95% confidence limit) C. neoformans: did not alter 12-mer antifungal activity

## 12-mer with positions 40, 41, 44, 48, 49 and 51 replaced by alanine, SEQ ID NO.12: AASYACLHAACA (OTHER INFORMATION: 12-mer-3 variant of the 12-mer) [Peptide 12-mer-3]
C. albicans [2]
  ED50 (95% confidence limit) C. albicans: no anticandidal activity
C. neoformans [3]
  internalization of FITC-labeled peptide: No internalization
C. albicans [4]
  internalization of FITC-labeled peptide: No internalization
C. neoformans [1]
  ED50 (95% confidence limit) C. neoformans: cidal activity was diminished; also recorded: No activity

## C[C@H](NC(=O)[C@H](Cc1cnc[nH]1)NC(=O)[C@H](CO)NC(=O)[C@@H](N)CC(=O)O)C(=O)N[C@@H](CCCCN)C(=O)N[C@@H](CCCNC(=N)N)C(=O)N[C@@H](Cc1cnc[nH]1)C(=O)N[C@@H](Cc1cnc[nH]1)C(=O)NCC(=O)N[C@@H](Cc1ccc(O)cc1)C(=O)N[C@@H](CCCCN)C(=O)N[C@@H](CCCNC(=N)N)C(=O)N[C@@H](CCCCN)C(=O)N[C@@H](Cc1ccccc1)C(=O)N[C@@H](Cc1cnc[nH]1)C(=O)N[C@@H](CCC(=O)O)C(=O)N[C@@H](CCCCN)C(=O)N[C@@H](Cc1cnc[nH]1)C(=O)N[C@@H](Cc1cnc[nH]1)C(=O)N[C@@H](CO)C(=O)N[C@@H](Cc1cnc[nH]1)C(=O)N[C@@H](CCCNC(=N)N)C(=O)NCC(=O)N[C@@H](Cc1ccc(O)cc1)C(=O)O [Hsn-5, reference compound]
Fungi or bacteria
  concentration for killing bacteria relative to killing fungi: more than 10 fold
C. albicans [2]; C. albicans, 300 μM CCCP or 20 mM sodium azide, 2 hours
  effect of pretreatment with CCCP or sodium azide on peptide-induced killing: rescued Candida cells from killing
C. albicans [2]; C. albicans, 4° C.
  potency at 4° C.: limited potency
C. albicans [2]; C. albicans, 5 min
  Loss of Cell viability (%): 0 + 0%
C. albicans [2]; C. albicans, 15 min
  Loss of Cell viability (%): 1 + 3%
C. albicans [2]; C. albicans, 30 min
  Loss of Cell viability (%): 11 + 4%
C. albicans [2]; C. albicans, 45 min
  Loss of Cell viability (%): 34 + 2%
C. albicans [2]; C. albicans, 90 min
  Loss of Cell viability (%): 42 + 3%
C. albicans [2]; C. albicans, Na phosphate buffer, 25 μM
  Peptide-induced killing without the cations: 100%
A. actinomycetemcomitans; 100 μM
  loss of cell viability at the highest concentration tested: 24%
C. neoformans [1]; C. neoformans, 300 μM CCCP or 20 mM sodium azide, 2 hours
  effect of pretreatment with CCCP or sodium azide on peptide-induced killing: unable to do the same
C. neoformans [1]; C. neoformans, 4° C.
  activity at 4° C.: hardly affected
C. neoformans [1]; C. neoformans, 5 min
  Loss of Cell viability (%): 9 ± 2%
C. neoformans [1]; C. neoformans, 15 min
  Loss of Cell viability (%): 43 + 3%
C. neoformans [1]; C. neoformans, 30 min
  Loss of Cell viability (%): 59 + 5%
C. neoformans [1]; C. neoformans, 45 min
  Loss of Cell viability (%): 64 + 1%
C. neoformans [1]; C. neoformans, 90 min
  Loss of Cell viability (%): 71 + 7%
C. neoformans [1]; C. neoformans, Na phosphate buffer, 25 μM
  Peptide-induced killing without the cations: 100%

## [H]/N=C(/N)N[C@H]1[C@H](O)[C@@H](O)[C@H](O[C@@H]2O[C@@H](C)[C@](O)(C=O)[C@H]2O[C@@H]2O[C@@H](CO)[C@H](O)[C@@H](O)[C@@H]2NC)[C@@H](N/C(N)=N\[H])[C@@H]1O [streptomycin]
S. mutans
  EC50: 64 µM
A. actinomycetemcomitans; Aggregatibacter actinomycetemcomitans, read-out: ED50 (95% confident limit)
  EC50: 2.7 µM

## from the N-terminus of the 20-mer (amino acids 32-39), SEQ ID NO.10: LAHQKPFI (OTHER INFORMATION: 8-mer-N; Amino acids 32-3 9 of the MUC7D1 peptide.) [Peptide 8-mer-N]
Fungi or bacteria
  antibacterial activity: did not exhibit antibacterial activity
C. albicans [2]
  ED50 (95% confidence limit) C. albicans: No activity
C. albicans [2]; listed as N-terminal 8-mer
  ED50 (95% confidence limit) C. albicans: no antifungal activity
C. neoformans [1]
  ED50 (95% confidence limit) C. neoformans: No activity
C. neoformans [1]; listed as N-terminal 8-mer
  ED50 (95% confidence limit) C. neoformans: no antifungal activity
